Measured values as given in the NIST ThermoML archive (doi:10.1021/je400539h).

Test: xn = mol fraction of the nth substance listed
Conditions: 101 kPa, Liquid

CCCCCCOC(C)=O [hexyl ethanoate] + C=COCCCC
x1 = 1
Conditions	mass density [kg/m3]	speed of sound [m/s]	viscosity [mPa·s]
298.15 K	868.3	1236	1.071
303.15 K	863.9	1216	0.982
308.15 K	859.8	1196	0.899
313.15 K	855	1176	0.836

C1COCCO1 [1,4-dioxane] + CCCCCCOC(C)=O
x2 = 0
Conditions	mass density [kg/m3]	speed of sound [m/s]	viscosity [mPa·s]
298.15 K	1028.2	1328	1.159
303.15 K	1022.7	1320	1.087
308.15 K	1017.4	1312	1.013
313.15 K	1011.1	1304	0.934

CCCCCCOC(C)=O [hexyl ethanoate] + COc1ccccc1
Conditions	mass density [kg/m3]	speed of sound [m/s]	viscosity [mPa·s]
298.15 K, x1 = 0.0698	979.8	1376	1.022
298.15 K, x1 = 0.1417	969.7	1360	1.031
298.15 K, x1 = 0.221	959	1344	1.038
298.15 K, x1 = 0.3061	947.7	1328	1.047
298.15 K, x1 = 0.398	935.8	1312	1.054
298.15 K, x1 = 0.4979	923.4	1300	1.058
298.15 K, x1 = 0.606	910.5	1284	1.061
298.15 K, x1 = 0.7254	896.9	1268	1.065
298.15 K, x1 = 0.8556	882.9	1252	1.07
298.15 K, x1 = 1	868.3	1236	1.071
303.15 K, x1 = 0.0698	975	1360	0.932
303.15 K, x1 = 0.1417	964.7	1340	0.94
303.15 K, x1 = 0.221	953.8	1324	0.95
303.15 K, x1 = 0.3061	942.6	1304	0.959
303.15 K, x1 = 0.398	930.8	1288	0.967
303.15 K, x1 = 0.4979	918.4	1272	0.972
303.15 K, x1 = 0.606	905.5	1260	0.975
303.15 K, x1 = 0.7254	891.9	1244	0.98
303.15 K, x1 = 0.8556	878	1232	0.983
303.15 K, x1 = 1	863.9	1216	0.982
308.15 K, x1 = 0.0698	968.1	1340	0.86
308.15 K, x1 = 0.1417	957.8	1320	0.872
308.15 K, x1 = 0.221	947.1	1296	0.878
308.15 K, x1 = 0.3061	936.2	1280	0.886
308.15 K, x1 = 0.398	925	1264	0.894
308.15 K, x1 = 0.4979	913	1248	0.898
308.15 K, x1 = 0.606	900.3	1236	0.901
308.15 K, x1 = 0.7254	886.8	1224	0.903
308.15 K, x1 = 0.8556	873.1	1208	0.902
308.15 K, x1 = 1	859.8	1196	0.898
313.15 K, x1 = 0.0698	961.6	1320	0.779
313.15 K, x1 = 0.1417	951.2	1296	0.791
313.15 K, x1 = 0.221	940.5	1272	0.802
313.15 K, x1 = 0.3061	929.8	1252	0.811
313.15 K, x1 = 0.398	918.6	1236	0.823
313.15 K, x1 = 0.4979	906.8	1220	0.828
313.15 K, x1 = 0.606	894.4	1204	0.833
313.15 K, x1 = 0.7254	881.2	1192	0.838
313.15 K, x1 = 0.8556	867.8	1184	0.84
313.15 K, x1 = 1	855	1176	0.836
